The text below walks through data of the supplement of paper PMC10627819.

What all share (experiment): Bliss interaction score (quartile over a dose matrix) (fitness difference); higher = more antagonism (negative = synergy)
Experiment [1] relates to B. subtilis 168. The gist of the method:
(§1)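 The Bliss score is observed minus expected fitness, where expected fitness is the product of the single-drug fitness values inferred from the combination data. Fitness is the OD595 at the onset of stationary phase over the plate's robust no-drug mean, capped at 1. Scores are summarised by quartiles over technical, biological and donor/recipient replicates.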

Experiment [2] has as its system S. aureus DSM 20231. The gist of the method: as §1
Experiment [3] concerns S. aureus Newman. The gist of the method: as §1
Experiment [4] relates to S. pneumoniae D39V. The gist of the method:
as §1
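Note: first quartile when negative (synergy) and third quartile when positive (antagonism).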

As for `CN(C)[C@@H]1C(O)=C(C(N)=O)C(=O)[C@@]2(O)C(O)=C3C(=O)c4c(O)ccc(Cl)c4[C@@](C)(O)[C@H]3C[C@@H]12` [Clortetracycline] + COc1cccc2c1C(=O)c1c(O)c3c(c(O)c1C2=O)C[C@@](O)(C(=O)CO)C[C@@H]3O[C@H]1C[C@H](N)[C@H](O)[C@H](C)O1 [Doxorubicin], the Bliss interaction score is 0.0883 in experiment [1], 0.0615 in experiment [2], -0.0472 in experiment [3] and -0.182 in experiment [4].

For the compound `C[C@@H]1O[C@@H]1P(=O)(O)O` [Fosfomycin] + Oc1cc(Cl)ccc1Oc1ccc(Cl)cc1Cl [Triclosan], the Bliss interaction score in experiment [1] was -0.0701; in experiment [2], 0.0662; in experiment [3], 0.0573; in experiment [4], 0.0597.

For `N#CC(C#N)=NNc1cccc(Cl)c1` [CCCP] + COc1ccc(C[C@H](N)C(=O)N[C@H]2[C@@H](O)[C@H](n3cnc4c(N(C)C)ncnc43)O[C@@H]2CO)cc1 [Puromycin], the Bliss interaction score in experiment [1] was found to be 0.0243; in experiment [2], 0.0553; in experiment [3], 0.0515; in experiment [4], 0.0604.

Regarding `CN(C)[C@@H]1C(O)=C(C(N)=O)C(=O)[C@@]2(O)C(O)=C3C(=O)c4c(O)ccc(Cl)c4[C@@](C)(O)[C@H]3C[C@@H]12` [Clortetracycline] + Cc1onc(-c2ccccc2)c1C(=O)N[C@@H]1C(=O)N2[C@@H]1SC(C)(C)[C@@H]2C(=O)O [Oxacillin], the Bliss interaction score in experiment [1] is 0.0896; in experiment [2], 0.0471; in experiment [3], 0.0386; in experiment [4], 0.125.

On to `CN(C)[C@@H]1C(O)=C(C(N)=O)C(=O)[C@@]2(O)C(O)=C3C(=O)c4c(O)ccc(Cl)c4[C@@](C)(O)[C@H]3C[C@@H]12` [Clortetracycline] + CN[C@H](CC(C)C)C(=O)N[C@H]1C(=O)N[C@@H](CC(N)=O)C(=O)N[C@H]2C(=O)N[C@H]3C(=O)N[C@H](C(=O)N[C@H](C(=O)O)c4cc(O)cc(O)c4-c4cc3ccc4O)[C@H](O)c3ccc(c(Cl)c3)Oc3cc2cc(c3O[C@@H]2O[C@H](CO)[C@@H](O)[C@H](O)[C@H]2O[C@H]2C[C@](C)(N)[C@H](O)[C@H](C)O2)Oc2ccc(cc2Cl)[C@H]1O [Vancomycin], for which the Bliss interaction score was -0.0454 in experiment [1], -0.0315 in experiment [2], 0.0562 in experiment [3] and 0.0542 in experiment [4].

With `CC(=O)Oc1ccccc1C(=O)O` [Acetylsalicylicacid] + CCN(CC)CCOC(=O)c1ccc(N)cc1 [Procaine], the Bliss interaction score in experiment [1] was 0.0531; in experiment [2], 0.0998; in experiment [3] it was -0.0687; in experiment [4] it was 0.0662.

As to `CC1(C)S[C@@H]2[C@H](NC(=O)Cc3ccccc3)C(=O)N2[C@H]1C(=O)O` [PenicillinG] + CN1C2=CC=CC=C2N=C3C1=CC=CC3=O [Pyocyanin], the Bliss interaction score in experiment [1] was -0.0227; in experiment [2] it was 0.0541; in experiment [3] it was 0.0699; in experiment [4], 0.144.

Regarding `CN(C)[C@@H]1C(O)=C(C(N)=O)C(=O)[C@@]2(O)C(O)=C3C(=O)c4c(O)ccc(Cl)c4[C@@](C)(O)[C@H]3C[C@@H]12` [Clortetracycline] + CN(N=O)C(=O)N[C@@H](C=O)[C@@H](O)[C@H](O)[C@H](O)CO [Streptozotocin], the Bliss interaction score in experiment [1] is 0.073; in experiment [2], 0.0625; in experiment [3] it was 0.0347; in experiment [4], -0.0534.

On to `N#CC(C#N)=NNc1cccc(Cl)c1` [CCCP] + CO/N=C(\C(=O)N[C@@H]1C(=O)N2C(C(=O)O)=C(COC(N)=O)CS[C@H]12)c1ccco1 [Cefuroxime], for which the Bliss interaction score in experiment [1] is 0.0873; in experiment [2], -0.256; in experiment [3], -0.112; in experiment [4], 0.0309.

In the case of `Cc1ncc([N+](=O)[O-])n1CCO` [Metronidazole] + CO[C@@]12[C@H](COC(N)=O)C3=C(C(=O)C(C)=C(N)C3=O)N1C[C@@H]1N[C@@H]12 [MitomycinC], the Bliss interaction score in experiment [1] is 0.132; in experiment [2] it was 0.0443; in experiment [3], 0.0511; in experiment [4], 0.0827.

As for `CC(=O)Oc1ccccc1C(=O)O` [Acetylsalicylicacid] + Cc1ncc([N+](=O)[O-])n1CCO [Metronidazole], the Bliss interaction score in experiment [1] is 0.203; in experiment [2], 0.0605; in experiment [3] it was -0.0652; in experiment [4], 0.056.

For `CC(=O)Oc1ccccc1C(=O)O` [Acetylsalicylicacid] + COc1cccc2c1C(=O)c1c(O)c3c(c(O)c1C2=O)C[C@@](O)(C(=O)CO)C[C@@H]3O[C@H]1C[C@H](N)[C@H](O)[C@H](C)O1 [Doxorubicin], the Bliss interaction score was 0.225 in experiment [1], 0.0666 in experiment [2], 0.0561 in experiment [3] and 0.0551 in experiment [4].

On to `CO/N=C(\C(=O)N[C@@H]1C(=O)N2C(C(=O)O)=C(COC(N)=O)CS[C@H]12)c1ccco1` [Cefuroxime] + N[C@@H]1CONC1=O [CycloserineD], for which the Bliss interaction score in experiment [1] is -0.0514; in experiment [2], 0.114; in experiment [3], -0.0647; in experiment [4], 0.0839.

Consider `CO/N=C(\C(=O)N[C@@H]1C(=O)N2C(C(=O)O)=C(COC(N)=O)CS[C@H]12)c1ccco1` [Cefuroxime] + CC[C@H]1OC(=O)[C@H](C)[C@@H](O[C@H]2C[C@@](C)(OC)[C@@H](O)[C@H](C)O2)[C@H](C)[C@@H](O[C@@H]2O[C@H](C)C[C@H](N(C)C)[C@H]2O)[C@](C)(OC)C[C@@H](C)C(=O)[C@H](C)[C@@H](O)[C@]1(C)O [Clarithromycin], for which the Bliss interaction score was -0.0354 in experiment [1], -0.249 in experiment [2], 0.0734 in experiment [3] and 0.0629 in experiment [4].

Turning to `N#CC(C#N)=NNc1cccc(Cl)c1` [CCCP] + CCC(C)C1C(=O)NC(=C)C(=O)NC(C(=O)NC(CSCC(C(=O)N1)NC(=O)/C(=C/C)/NC(=O)C(C(C)CC)N)C(=O)NC2C(SCC(NC(=O)CNC(=O)C3CCCN3C2=O)C(=O)NC(CCCCN)C(=O)NC4C(SCC(NC(=O)CNC(=O)C(NC(=O)C(NC(=O)C(NC(=O)CNC4=O)C)CC(C)C)CCSC)C(=O)NC(CC(=O)N)C(=O)NC(CCSC)C(=O)NC(CCCCN)C(=O)NC5C(SCC6C(=O)NC(C(=O)NC(CSC(C(C(=O)N6)NC(=O)C(NC5=O)C)C)C(=O)NC(CO)C(=O)NC(C(C)CC)C(=O)NC(CC7=CN=CN7)C(=O)NC(C(C)C)C(=O)NC(=C)C(=O)NC(CCCCN)C(=O)O)CC8=CN=CN8)C)C)C)CC(C)C [Nisin], the Bliss interaction score was 0.0522 in experiment [1] (main component drawn), 0.0712 in experiment [2] (main component drawn), -0.0401 in experiment [3] (main component drawn) and -0.0317 in experiment [4] (main component drawn).

For `CO/N=C(\C(=O)N[C@@H]1C(=O)N2C(C(=O)O)=C(COC(C)=O)CS[C@H]12)c1csc(N)n1` [Cefotaxime] + N[C@@H]1CONC1=O [CycloserineD], the Bliss interaction score in experiment [1] was 0.0869; in experiment [2], 0.0848; in experiment [3] it was 0.0643; in experiment [4], -0.0787.

On to `CN(C)[C@@H]1C(O)=C(C(N)=O)C(=O)[C@@]2(O)C(O)=C3C(=O)c4c(O)ccc(Cl)c4[C@@](C)(O)[C@H]3C[C@@H]12` [Clortetracycline] + CO[C@H]1/C=C/O[C@@]2(C)Oc3c(C)c(O)c4c(O)c(c(/C=N/N5CCN(C)CC5)c(O)c4c3C2=O)NC(=O)/C(C)=C\C=C\[C@H](C)[C@H](O)[C@@H](C)[C@@H](O)[C@@H](C)[C@H](OC(C)=O)[C@@H]1C [Rifampicin], for which the Bliss interaction score was -0.26 in experiment [1], -0.0529 in experiment [2], 0.0541 in experiment [3] and 0.0664 in experiment [4].

As for `CC(=O)Oc1ccccc1C(=O)O` [Acetylsalicylicacid] + CC(=O)NC[C@H]1CN(c2ccc(N3CCOCC3)c(F)c2)C(=O)O1 [Linezolid], the Bliss interaction score in experiment [1] is 0.0401; in experiment [2] it was -0.0728; in experiment [3], 0.0639; in experiment [4] it was 0.145.

Consider `CN(C)c1cc(NC(=O)CNC(C)(C)C)c(O)c2c1C[C@H]1C[C@H]3[C@H](N(C)C)C(O)=C(C(N)=O)C(=O)[C@@]3(O)C(O)=C1C2=O` [Tigecycline] + Oc1cc(Cl)ccc1Oc1ccc(Cl)cc1Cl [Triclosan], for which the Bliss interaction score stood at 0.0719 in experiment [1], 0.101 in experiment [2], 0.0252 in experiment [3] and 0.0471 in experiment [4].

As to `COc1cccc2c1C(=O)c1c(O)c3c(c(O)c1C2=O)C[C@@](O)(C(=O)CO)C[C@@H]3O[C@H]1C[C@H](N)[C@H](O)[C@H](C)O1` [Doxorubicin] + CN[C@H](CC(C)C)C(=O)N[C@H]1C(=O)N[C@@H](CC(N)=O)C(=O)N[C@H]2C(=O)N[C@H]3C(=O)N[C@H](C(=O)N[C@H](C(=O)O)c4cc(O)cc(O)c4-c4cc3ccc4O)[C@H](O[C@H]3C[C@](C)(N)[C@@H](O)[C@H](C)O3)c3ccc(c(Cl)c3)Oc3cc2cc(c3O[C@@H]2O[C@H](CO)[C@@H](O)[C@H](O)[C@H]2O[C@H]2C[C@](C)(NCc3ccc(-c4ccc(Cl)cc4)cc3)[C@@H](O)[C@H](C)O2)Oc2ccc(cc2Cl)[C@H]1O [Oritavancin], the Bliss interaction score in experiment [1] was -0.0288; in experiment [2], 0.0678; in experiment [3], 0.114; in experiment [4], 0.0571.

In the case of `CN(C)[C@@H]1C(O)=C(C(N)=O)C(=O)[C@@]2(O)C(O)=C3C(=O)c4c(O)ccc(Cl)c4[C@@](C)(O)[C@H]3C[C@@H]12` [Clortetracycline] + CO[C@@]12[C@H](COC(N)=O)C3=C(C(=O)C(C)=C(N)C3=O)N1C[C@@H]1N[C@@H]12 [MitomycinC], the Bliss interaction score is 0.0447 in experiment [1], -0.0551 in experiment [2], 0.104 in experiment [3] and -0.0402 in experiment [4].

For the compound `CC1(C)S[C@@H]2[C@H](NC(=O)Cc3ccccc3)C(=O)N2[C@H]1C(=O)O` [PenicillinG] + Oc1cc(Cl)ccc1Oc1ccc(Cl)cc1Cl [Triclosan], the Bliss interaction score worked out at 0.0307 in experiment [1], 0.0254 in experiment [2], 0.0326 in experiment [3] and 0.0767 in experiment [4].

`C[C@H]1c2cccc(O)c2C(=O)C2=C(O)[C@]3(O)C(=O)C(C(N)=O)=C(O)[C@@H](N(C)C)[C@@H]3[C@@H](O)[C@@H]21` [Doxycycline] + CC1(C)S[C@@H]2[C@H](NC(=O)Cc3ccccc3)C(=O)N2[C@H]1C(=O)O [PenicillinG]: the Bliss interaction score in experiment [1] is 0.108; in experiment [2], 0.0444; in experiment [3] it was -0.027; in experiment [4] it was 0.106.
